Data taken from PubChem BioAssay AID330 (DTP/NCI, 2004).
Values joined by “and” are separate entries in the source; they are usually repeats but may differ in a detail not shown here. Equal values may be shown once. Toxic doses and inconclusive results are not listed.

Tested on: P388 leukemia ip, CD2F1 mice, survival T/C
Experiment: NCI In Vivo Anticancer Drug Screen. Data for tumor model P388 Leukemia (intraperitoneal) in CD2F1 (CDF1) mice
Conditions: endpoint: median survival time, higher = longer survival
In short: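 Mice carrying the transplanted tumor received test compound or vehicle. Survival was recorded in each group, and the value is the treated-group measurement divided by that of the vehicle-treated control group.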

[1] = dose: 60.0 mg/kg/injection, schedule: Q01DX005 (ip), vehicle: saline with Tween-80
[2] = dose: 120.0 mg/kg/injection, schedule: Q01DX005 (ip), vehicle: saline with Tween-80
[3] = dose: 240.0 mg/kg/injection, schedule: Q01DX005 (ip), vehicle: saline with Tween-80
[4] = dose: 25.0 mg/kg/injection, schedule: Q04DX002 (ip), vehicle: saline
[5] = dose: 50.0 mg/kg/injection, schedule: Q04DX002 (ip), vehicle: saline
[6] = dose: 50.0 mg/kg/injection, schedule: Q01DX009 (ip), vehicle: saline with Tween-80
[7] = dose: 100.0 mg/kg/injection, schedule: Q01DX009 (ip), vehicle: saline with Tween-80
[8] = dose: 200.0 mg/kg/injection, schedule: Q01DX009 (ip), vehicle: saline with Tween-80
[9] = dose: 12.5 mg/kg/injection, schedule: Q01DX005 (ip), vehicle: saline with Tween-80
[10] = dose: 6.25 mg/kg/injection, schedule: Q01DX009 (ip), vehicle: water
[11] = dose: 12.5 mg/kg/injection, schedule: Q01DX009 (ip), vehicle: water
[12] = dose: 25.0 mg/kg/injection, schedule: Q01DX009 (ip), vehicle: water
[13] = dose: 50.0 mg/kg/injection, schedule: Q01DX005 (ip), vehicle: Klucel (hydroxypropylcellulose) (HPC)
[14] = dose: 100.0 mg/kg/injection, schedule: Q01DX005 (ip), vehicle: Klucel (hydroxypropylcellulose) (HPC)
[15] = dose: 200.0 mg/kg/injection, schedule: Q01DX005 (ip), vehicle: Klucel (hydroxypropylcellulose) (HPC)
[16] = dose: 50.0 mg/kg/injection, schedule: Q01DX005 (ip), vehicle: saline with Tween-80
[17] = dose: 100.0 mg/kg/injection, schedule: Q01DX005 (ip), vehicle: saline with Tween-80
[18] = dose: 200.0 mg/kg/injection, schedule: Q01DX005 (ip), vehicle: saline with Tween-80
[19] = dose: 12.5 mg/kg/injection, schedule: Q01DX009 (ip), vehicle: saline
[20] = dose: 50.0 mg/kg/injection, schedule: Q01DX009 (ip), vehicle: saline
[21] = dose: 25.0 mg/kg/injection, schedule: Q01DX009 (ip), vehicle: saline

With `CC1=CC(C)(C)Nc2ccc(Cc3ccc4c(c3)C(C)=CC(C)(C)N4)cc21` the T/C [1] was 101 % of control, the T/C [2] was 94 % of control and the T/C [3] was 95 % of control.
With `CC[N+](C)(CC)c1ccccc1` the T/C [4] was 103 % of control and the T/C [5] was 104 % of control.
`C#CC(C)(O)C(O)c1ccccc1` (stereo not given) was tested, and the T/C [6] was 98 % of control, the T/C [7] was 109 % of control and the T/C [8] was 96 % of control.
In the case of `N#CC12CCC(CC1)CC2Cl` (stereo not given), the T/C (dose: 0.5 mg/kg/injection, schedule: Q01DX009 (ip), vehicle: saline with Tween-80) is reported as 108 % of control, the T/C (dose: 1.0 mg/kg/injection, schedule: Q01DX009 (ip), vehicle: saline with Tween-80) is reported as 100 % of control and the T/C (dose: 2.0 mg/kg/injection, schedule: Q01DX009 (ip), vehicle: saline with Tween-80) is reported as 106 % of control. The T/C (dose: 4.0 mg/kg/injection, schedule: Q01DX009 (ip), vehicle: saline with Tween-80) was 113 % of control.
In the case of `CCCOC(=O)C1C2CCC(O2)C1C(=O)O` (stereo not given), the T/C (dose: 6.25 mg/kg/injection, schedule: Q01DX005 (ip), vehicle: saline) is reported as 106 % of control and the T/C (dose: 12.5 mg/kg/injection, schedule: Q01DX005 (ip), vehicle: saline) is reported as 103 % of control.
With `O=C1CSC(=S)N1c1ccc2c(c1)OCO2` the T/C [1] was 92 % of control, the T/C [2] was 90 % of control and the T/C [3] was 90 % of control.
With `COc1ccc(-c2nnc(-c3ccc(Cl)cc3)c(=O)[nH]2)cc1` the T/C (dose: 6.25 mg/kg/injection, schedule: Q01DX005 (ip), vehicle: saline with Tween-80) was 91 % of control and the T/C [9] was 90 % of control.
For `CCC(c1ccc(O)cc1)c1cc2c(cc1OC)OCO2` (stereo not given), the T/C (dose: 50.0 mg/kg/injection, schedule: Q01DX005 (ip), vehicle: distilled water + Tween-80) was 101 % of control, the T/C (dose: 100.0 mg/kg/injection, schedule: Q01DX005 (ip), vehicle: distilled water + Tween-80) was 96 % of control and the T/C (dose: 200.0 mg/kg/injection, schedule: Q01DX005 (ip), vehicle: distilled water + Tween-80) was 96 % of control.
`CCCCOc1ccc(NN=O)cn1` was tested, and the T/C (dose: 3.12 mg/kg/injection, schedule: Q01DX009 (ip), vehicle: water) was 106 % of control, the T/C [10] was 92 % of control and the T/C [11] was 99 % of control. For the same compound, the T/C [12] was 93 % of control, the T/C (dose: 50.0 mg/kg/injection, schedule: Q01DX009 (ip), vehicle: water) was 92 % of control and 97 % of control and the T/C (dose: 100.0 mg/kg/injection, schedule: Q01DX009 (ip), vehicle: water) was 97 % of control. The T/C (dose: 200.0 mg/kg/injection, schedule: Q01DX009 (ip), vehicle: water) was 101 % of control.
For `Oc1ccc(O)c(-c2c(-c3ccccc3)cc3ccccn23)c1`, the T/C [13] was 102 % of control, the T/C [14] was 104 % of control and the T/C [15] was 104 % of control.
`Fc1ccc(N2CSC(=S)N(c3ccc(F)cc3F)C2)c(F)c1` was tested, and the T/C [16] was 107 % of control, the T/C [17] was 104 % of control and the T/C [18] was 95 % of control.
For `CC(=O)OCc1cocc1COC(C)=O`, the T/C [13] was 100 % of control and 103 % of control, the T/C [14] was 107 % of control and 98 % of control and the T/C [15] was 117 % of control and 94 % of control.
For `Cc1nnc2c3nccnc3c(Cl)nn12`, the T/C (dose: 15.0 mg/kg/injection, schedule: Q01DX005 (ip), vehicle: saline with Tween-80) was 105 % of control, the T/C (dose: 30.0 mg/kg/injection, schedule: Q01DX005 (ip), vehicle: saline with Tween-80) was 112 % of control and the T/C [1] was 102 % of control and 105 % of control.
In the case of `O=C1C(CO)=C[C@H](O)[C@@]2(CO)O[C@@H]12`, the T/C (dose: 6.25 mg/kg/injection, schedule: Q04DX002 (ip), vehicle: saline) is reported as 100 % of control, the T/C (dose: 12.5 mg/kg/injection, schedule: Q04DX002 (ip), vehicle: saline) is reported as 107 % of control and the T/C [4] is reported as 107 % of control. For the same compound, the T/C [5] was 100 % of control and the T/C (dose: 100.0 mg/kg/injection, schedule: Q04DX002 (ip), vehicle: saline) was 121 % of control.
With `NC(=O)CCC(N)C(=O)O.[Cl-].[Cl-].[Cl-].[Cl-].[Pt+2]` (stereo not given) the T/C (dose: 6.25 mg/kg/injection, schedule: Q01DX009 (ip), vehicle: saline) was 107 % of control, the T/C [10] was 153 % of control and the T/C (dose: 11.0 mg/kg/injection, schedule: Q01DX009 (ip), vehicle: saline) was 106 % of control. For the same compound, the T/C [19] was 110 % of control, the T/C [11] was 154 % of control and 155 % of control and the T/C [12] was 155 % of control. For the same compound, the T/C (dose: 37.5 mg/kg/injection, schedule: Q01DX009 (ip), vehicle: saline) was 157 % of control and the T/C [20] was 152 % of control.
In the case of `COc1cccc(C(=O)NCCNCCNC(=O)c2cccc(OC)c2OC)c1OC`, the T/C [1] is reported as 108 % of control, the T/C [2] is reported as 104 % of control and the T/C [3] is reported as 94 % of control.
`Cc1nc(N)c2nc(SC(C)C)c(N)nc2n1` was tested, and the T/C [6] was 91 % of control, the T/C [7] was 91 % of control and the T/C [8] was 91 % of control.
For `O=C(C(=O)C(Br)Br)C(Br)Br`, the T/C (dose: 1.56 mg/kg/injection, schedule: Q01DX009 (ip), vehicle: DMSO) was 99 % of control, the T/C (dose: 3.12 mg/kg/injection, schedule: Q01DX009 (ip), vehicle: DMSO) was 103 % of control and the T/C (dose: 6.25 mg/kg/injection, schedule: Q01DX009 (ip), vehicle: DMSO) was 99 % of control.
`CC(=O)Nc1cc(S(=O)(=O)O)cc2c(N=Nc3ccc(C(=O)Nc4ccc(N=Nc5ccc(S(=O)(=O)O)cc5)cc4)cc3)c(S(=O)(=O)O)cc(O)c12` was tested, and the T/C [16] was 93 % of control, the T/C [17] was 90 % of control and the T/C [18] was 101 % of control.
For `O=C(NCC(O)CNC(=O)Nc1ccc(C2=NCC(O)CN2)cc1)Nc1ccc(C2=NCC(O)CN2)cc1` (stereo not given), the T/C [9] was 95 % of control, the T/C (dose: 25.0 mg/kg/injection, schedule: Q01DX005 (ip), vehicle: saline with Tween-80) was 100 % of control and the T/C [16] was 109 % of control and 97 % of control.
In the case of `C=CCNC(=O)c1cc(N2CC2)c([N+](=O)[O-])cc1[N+](=O)[O-]`, the T/C (dose: 12.5 mg/kg/injection, schedule: Q01DX009 (ip), vehicle: Klucel (hydroxypropylcellulose) (HPC)) is reported as 91 % of control and 97 % of control.
`C(Oc1nc(OCC2CO2)nc(OCC2CO2)n1)C1CO1` (stereo not given) was tested, and the T/C [19] was 108 % of control, the T/C [21] was 105 % of control and the T/C [20] was 101 % of control and 108 % of control.
For `C[PH+](C)C.C[PH+](C)C.[Au]`, the T/C (dose: 1.25 mg/kg/injection, schedule: Q01DX009 (ip), vehicle: saline) was 112 % of control, the T/C (dose: 2.5 mg/kg/injection, schedule: Q01DX009 (ip), vehicle: saline) was 114 % of control and the T/C (dose: 5.0 mg/kg/injection, schedule: Q01DX009 (ip), vehicle: saline) was 116 % of control.
`Nc1nnc2nc(CC(=O)c3cccc([N+](=O)[O-])c3)/c(=C/C(=O)c3cccc([N+](=O)[O-])c3)n12` was tested, and the T/C [16] was 94 % of control, the T/C [17] was 91 % of control and the T/C [18] was 101 % of control.
With `CC1=CC(=C2C(=O)c3ccccc3C2=O)C=C(C)N1CCN1CCCCC1` the T/C (dose: 50.0 mg/kg/injection, schedule: Q01DX005 (ip), vehicle: saline) was 98 % of control, the T/C (dose: 60.0 mg/kg/injection, schedule: Q01DX005 (ip), vehicle: Klucel (hydroxypropylcellulose) (HPC)) was 90 % of control and the T/C (dose: 100.0 mg/kg/injection, schedule: Q01DX005 (ip), vehicle: saline) was 99 % of control. The T/C (dose: 120.0 mg/kg/injection, schedule: Q01DX005 (ip), vehicle: Klucel (hydroxypropylcellulose) (HPC)) was 95 % of control.
`CCOP(=O)(OCC)Oc1cnn(C)c(=O)c1SCC` was tested, and the T/C (dose: 0.78 mg/kg/injection, schedule: Q01DX005 (ip), vehicle: saline) was 98 % of control.
`Cc1ccccc1N(CC1CO1)CC1CO1` (stereo not given) was tested, and the T/C [21] was 119 % of control, the T/C (dose: 100.0 mg/kg/injection, schedule: Q01DX009 (ip), vehicle: acetone) was 156 % of control and the T/C (dose: 200.0 mg/kg/injection, schedule: Q01DX009 (ip), vehicle: saline) was 165 % of control.
With `CC(C)(C)C[C](C)(c1ccccc1)[Sn]([CH3])([CH3])[CH3]` (stereo not given) the T/C (dose: 50.0 mg/kg/injection, schedule: Q01DX009 (ip), vehicle: Klucel (hydroxypropylcellulose) (HPC)) was 94 % of control, the T/C (dose: 100.0 mg/kg/injection, schedule: Q01DX009 (ip), vehicle: Klucel (hydroxypropylcellulose) (HPC)) was 102 % of control and the T/C (dose: 200.0 mg/kg/injection, schedule: Q01DX009 (ip), vehicle: Klucel (hydroxypropylcellulose) (HPC)) was 102 % of control.
